Results from the NIST ThermoML archive (doi:10.1021/acs.jced.5b00662).

Assay: xn = mol fraction of the nth substance listed
Conditions: 100 kPa, Liquid; for speed of sound: Sing-around technique in a fixed-path interferometer; for mass density: Vibrating tube method

CCOCCOCCOCC [diethylene glycol diethyl ether] + O
Conditions	mass density [kg/m3]	speed of sound [m/s]
283.15 K, x1 = 0.97	918.572	1305.3
283.15 K, x1 = 0.9742	918.371	1304.9
283.15 K, x1 = 0.9778	918.271	1303.9
283.15 K, x1 = 0.9836	917.783	1303.6
283.15 K, x1 = 0.9875	917.643	1304.4
283.15 K, x1 = 0.9911	917.567	1304.1
288.15 K, x1 = 0.97	913.742	1284.9
288.15 K, x1 = 0.9742	913.543	1284.6
288.15 K, x1 = 0.9778	913.443	1283.6
288.15 K, x1 = 0.9836	912.955	1283.3
288.15 K, x1 = 0.9875	912.82	1284
288.15 K, x1 = 0.9911	912.74	1284
293.15 K, x1 = 0.97	908.91	1264.8
293.15 K, x1 = 0.9742	908.705	1264.4
293.15 K, x1 = 0.9778	908.61	1263.6
293.15 K, x1 = 0.9836	908.126	1263.2
293.15 K, x1 = 0.9875	907.993	1263.9
293.15 K, x1 = 0.9911	907.914	1263.8
298.15 K, x1 = 0.97	904.074	1244.9
298.15 K, x1 = 0.9742	903.873	1244.6
298.15 K, x1 = 0.9778	903.775	1243.7
298.15 K, x1 = 0.9836	903.3	1243.4
298.15 K, x1 = 0.9875	903.166	1244.1
298.15 K, x1 = 0.9911	903.09	1244
303.15 K, x1 = 0.97	899.235	1225.2
303.15 K, x1 = 0.9742	899.035	1224.9
303.15 K, x1 = 0.9778	898.937	1224
303.15 K, x1 = 0.9836	898.467	1223.6
303.15 K, x1 = 0.9875	898.334	1224.4
303.15 K, x1 = 0.9911	898.256	1224.2
308.15 K, x1 = 0.97	894.389	1205.6
308.15 K, x1 = 0.9742	894.189	1205.3
308.15 K, x1 = 0.9778	894.092	1204.6
308.15 K, x1 = 0.9836	893.628	1204.1
308.15 K, x1 = 0.9875	893.496	1204.7
308.15 K, x1 = 0.9911	893.419	1204.6
313.15 K, x1 = 0.97	889.537	1186.4
313.15 K, x1 = 0.9742	889.339	1186
313.15 K, x1 = 0.9778	889.241	1185.3
313.15 K, x1 = 0.9836	888.783	1184.7
313.15 K, x1 = 0.9875	888.652	1184.7
313.15 K, x1 = 0.9911	888.577	1185.3
323.15 K, x1 = 0.97	879.812	1148.2
323.15 K, x1 = 0.9742	879.619	1147.7
323.15 K, x1 = 0.9778	879.518	1147.3
323.15 K, x1 = 0.9836	879.074	1146.7
323.15 K, x1 = 0.9875	878.945	1146.3
323.15 K, x1 = 0.9911	878.873	1146.2
333.15 K, x1 = 0.97	870.056	1111
333.15 K, x1 = 0.9742	869.867	1110.4
333.15 K, x1 = 0.9778	869.76	1110
333.15 K, x1 = 0.9836	869.332	1109.5
333.15 K, x1 = 0.9875	869.203	1109.1
333.15 K, x1 = 0.9911	869.134	1108.9
343.15 K, x1 = 0.97	860.264	1074.5
343.15 K, x1 = 0.9742	860.076	1074
343.15 K, x1 = 0.9778	859.966	1073.7
343.15 K, x1 = 0.9836	859.55	1073.1
343.15 K, x1 = 0.9875	859.411	1072.6
343.15 K, x1 = 0.9911	859.346	1072.7

OCCOCCO [diethylene glycol] + O
Conditions	mass density, x1 = 0.907 [kg/m3]	mass density, x1 = 0.9589 [kg/m3]	mass density, x1 = 0.9698 [kg/m3]	mass density, x1 = 0.99 [kg/m3]	mass density, x1 = 0.9901 [kg/m3]	speed of sound, x1 = 0.907 [m/s]	speed of sound, x1 = 0.9589 [m/s]	speed of sound, x1 = 0.9698 [m/s]	speed of sound, x1 = 0.99 [m/s]	speed of sound, x1 = 0.9901 [m/s]
283.15 K	1123.13	1123.27	1123.27	1123.33	1123.33	1620.3	1617.8	1617.4	1616.4	1616.5
288.15 K	1119.58	1119.71	1119.72	1119.77	1119.77	1608	1605.5	1605.2	1604.1	1604.2
293.15 K	1116.02	1116.15	1116.16	1116.21	1116.21	1595.9	1593.3	1593	1591.9	1592
298.15 K	1112.45	1112.59	1112.59	1112.65	1112.65	1583.8	1581	1580.8	1579.6	1579.8
303.15 K	1108.88	1109.02	1109.03	1109.08	1109.08	1571.7	1569	1568.6	1567.5	1567.4
308.15 K	1105.3	1105.43	1105.44	1105.5	1105.5	1559.6	1557	1556.6	1555.4	1555.4
313.15 K	1101.69	1101.83	1101.84	1101.9	1101.9	1547.5	1545	1544.6	1543.4	1543.3
323.15 K	1094.45	1094.6	1094.6	1094.67	1094.67	1523.4	1520.9	1520.5	1519.3	1519.2
333.15 K	1087.12	1087.28	1087.29	1087.36	1087.36	1499	1496.6	1496.2	1495.1	1494.9
343.15 K	1079.71	1079.88	1079.9	1079.97	1079.97	1474.6	1472.2	1471.8	1470.8	1470.5
